Measurements published in paper PMC6832239, “The Effects of a Novel Series of KTTKS Analogues on Cytotoxicity and Proteolytic Activity” (Molecules, 2019).
Where two headings read alike, the source gives them in different places.

How the values were obtained:
thrombin = target: T1, thrombin (Bos taurus, UniProt P00735); assay: Amidolytic activity of thrombin (chromogenic substrate H-D-Phe-Pip-Arg-pNA); assay type: biochemical; details: amidolytic activity; Tris pH 8.4, 37 °C; IC50 by extrapolation using a linear plot; error 5%; read-out: IC50 Thrombin
T1 construct: purchased Lubelska Wytwórnia Szczepionek (Lublin, Poland)
Description: The determination of amidolytic activity was performed as previously described by Okada. A detailed description of the method is given below: 0.2 mL of the examined peptides (0.15 M NaCl as contro), a buffer, and 0.1 mL of enzyme solution were mixed. The final peptide concentrations were: 0.2 mM, 2 mM, and 20 mM. The mixture was incubated at 37 °C for 3 min; then the synthetic substrate solution was added in the same buffer. […] The mean values from three independent experiments done in duplicate are presented. A method error of 5% was adopted as statistical error. […] IC50 was calculated mathematically by extrapolation using a linear plot.

urokinase = target: T2, urokinase (Homo sapiens, UniProt P00749); assay: Amidolytic activity of urokinase (chromogenic substrate pyro-Glu-Gly-Arg-pNA); assay type: biochemical; details: amidolytic activity; Tris pH 8.8, 37 °C; IC50 by extrapolation using a linear plot; error 5%; read-out: IC50 Urokinase
T2 construct: purchased Sigma (Schnelldorf, Germany)
Description: (§1) The determination of amidolytic activity was performed as previously described by Okada. A detailed description of the method is given below: 0.2 mL of the examined peptides (0.15 M NaCl as contro), a buffer, and 0.1 mL of enzyme solution were mixed. The final peptide concentrations were: 0.2 mM, 2 mM, and 20 mM. The mixture was incubated at 37 °C for 3 min; then the synthetic substrate solution was added in the same buffer. After 20 min of incubation, the reaction was stopped by adding 0.1 mL of 50% acetic acid and the absorbance of the released p-nitroaniline was measured at 405 nm. The mean values from three independent experiments done in duplicate are presented. A method error of 5% was adopted as statistical error. IC50 value was considered as the concentration of inhibitor that reduces absorbance by 50%, compared with absorbance measured under the same conditions without an inhibitor. IC50 was calculated mathematically by extrapolation using a linear plot. IC50 values are presented in Table 1 and Table 2, and graphically in Figure 1.
(§2) The buffers and the enzyme solutions included: • Tris buffer—0.6 mL (pH 8.8), enzyme: urokinase (50 units/mL), synthetic substrate: pyro-Glu-Gly-Arg-pNA·HCl (0.1 mL, 3 mM); • Tris buffer—0.5 mL (pH 8.4), enzyme: thrombin (1 units/mL), synthetic substrate: H-D-Phe-Pip-Arg-pNA (0.2 mL, 0.75 mM); • Tris buffer—0.5 mL (pH 7.4), enzyme: plasmin (0.4 units/mL), synthetic substrate: H-D-Val-Leu-Lys-pNA (0.2 mL, 3 mM); • Borate buffer—0.5 mL (pH 7.5), enzyme: trypsin (0.4 units/mL), synthetic substrate: Bzl-L-Arg-pNA·HCl (0.2 mL, 8 mM); • Tris buffer—0.6 mL (pH 9.0), enzyme: kallikrein (3 units/mL), synthetic substrate: H-D-Val-Leu-Arg-pNA·2HCl (0.1 mL, 75 mM); • Tris buffer—0.6 mL (pH 8.4), enzyme: t-PA ([…]), synthetic substrate: H-D-Ile-Pro-Arg-pNA (0.1 mL, 10 mM) • Tris buffer—0.6 mL (pH 9.0), enzyme: chymotrypsin (0.4 units/mL), synthetic substrate: Suc-Phe-pNA (0.2 mL, 8 mM)

plasmin = target: T3, plasmin (Homo sapiens, UniProt P00747); assay: Amidolytic activity of plasmin (chromogenic substrate H-D-Val-Leu-Lys-pNA); assay type: biochemical
T3 construct: purchased Chromogenix (Milano, Italy)
T3 sequence (P00747 581-810 limits assumed): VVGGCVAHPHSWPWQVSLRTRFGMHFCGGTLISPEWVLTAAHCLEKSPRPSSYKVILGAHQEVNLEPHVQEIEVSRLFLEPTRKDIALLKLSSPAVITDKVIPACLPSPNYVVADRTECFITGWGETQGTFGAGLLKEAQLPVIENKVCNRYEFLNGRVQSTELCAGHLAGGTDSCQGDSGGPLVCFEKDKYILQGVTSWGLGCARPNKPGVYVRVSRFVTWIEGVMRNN
T3 sequence (P00747 97-580 partner limits assumed): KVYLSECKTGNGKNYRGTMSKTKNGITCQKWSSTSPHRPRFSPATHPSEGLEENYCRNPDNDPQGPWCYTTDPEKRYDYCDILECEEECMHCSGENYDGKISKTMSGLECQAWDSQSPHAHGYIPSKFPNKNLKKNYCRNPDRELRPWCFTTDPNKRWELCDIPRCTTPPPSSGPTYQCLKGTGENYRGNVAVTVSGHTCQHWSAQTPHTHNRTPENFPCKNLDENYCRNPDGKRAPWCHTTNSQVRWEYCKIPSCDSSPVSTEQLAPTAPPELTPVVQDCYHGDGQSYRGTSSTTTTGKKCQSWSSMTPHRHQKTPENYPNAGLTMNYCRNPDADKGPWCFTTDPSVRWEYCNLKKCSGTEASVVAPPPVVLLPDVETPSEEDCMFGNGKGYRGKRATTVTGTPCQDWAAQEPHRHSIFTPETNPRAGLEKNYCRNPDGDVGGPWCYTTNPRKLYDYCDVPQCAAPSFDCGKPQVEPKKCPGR
Description: as §1, §2

[1] = Viability of fibroblast cells, MTT assay; assay type: cell-based, Human; details: human, primary dermal fibroblast cells, 24 h, MTT, ± 2, read-out: Viability of fibroblast cells
Description: Viability of fibroblast cells was examined with the use of the MTT assay. MTT, a yellow tetrazole, is reduced to purple formazan only in living cells. Absorbance of the coloured solution was measured by a spectrophotometer.
These studies were performed on primary dermal fibroblasts cells. The cells were maintained in DMEM supplemented with 10% fetal bovine serum (FBS), 2 mM glutamin, 50 U/mL penicillin and […] streptomycin at 37 °C in a 5% CO2 incubator. For experiments, cells cultures were plated at a density of 1 × 10^6/well in six-well culture plates (Costar, St. Louis, MO, USA) in 2 mL of growth medium. Cells reached about 80% of confluency at day 2 were used for the assays.
Toxicity of the tested substances was determined using an MTT [3-(4,5-dimethylthiazol-2-yl)-2,5-diphenyltetrazolium bromide)] assay. Palmitoyl and lipoyl peptides were dissolved in DMSO (dimethyl sulfoxide), the other peptides in DMEM, and added to the cell culture medium. Simultaneously, the same concentrations of DMSO without peptides were added to cells, serving as controls. The final peptide concentrations were: 1 μM, 10 μM, and 100 μM. After 24 h incubation, the cells cultured with the tested compounds were washed with phosphate-buffered saline (PBS) and then incubated for 4 h in 2 mL of MTT solution (5 mg/mL). After removing the medium, the cells were lysed in 200 μL of DMSO with 20 μL of Sorensen’s buffer (pH 10.5, 0.1 mol/L glycine with 0.1 mol/L NaCl). The absorbance of converted dye in living cells was measured at a wavelength of 570 nm. The mean values ± SD from three independent experiments done in duplicate are presented.

[2] = amidolytic activity, Tris pH 7.4, 37 °C, IC50 by extrapolation using a linear plot, error 5%, read-out: IC50 Plasmin
[3] = converted from IC50 of Table 1, read-out: -logIC50 Plasmin (converted)

Substance	IC50 (thrombin) [mM]	IC50 (urokinase) [mM]	IC50 (plasmin; [2]) [mM]	IC50 (plasmin; [3]) [mM]	viability at 24 h, 1 µmol/L [1] [%]	viability at 24 h, 10 µmol/L [1] [%]	viability at 24 h, 100 µmol/L [1] [%]
Ac-RTTRS-NH2 [Peptide 22, Ac-Arg-Thr-Thr-Arg-Ser-NH2]	1.47 ± 0.074	> 20	9.08 ± 0.45		102	99	101
H-RTTKS-NH2 [Peptide 29, H-Arg-Thr-Thr-Lys-Ser-NH2]	2.43 ± 0.12	7.95 ± 0.4	0.3 ± 0.015	0.309	101	111	110
H-RTTRS-NH2 [Peptide 21, H-Arg-Thr-Thr-Arg-Ser-NH2]	2.93 ± 0.14	12 ± 0.59	0.44 ± 0.022		84	94	103

Second part, led by results:

IC50 (thrombin) [mM]	IC50 (urokinase) [mM]	IC50 (plasmin; [2]) [mM]	IC50 (plasmin; [3]) [mM]	Substance	viability at 24 h, 1 µmol/L [1] [%]	viability at 24 h, 10 µmol/L [1] [%]	viability at 24 h, 100 µmol/L [1] [%]
1.59 ± 0.08	12.1 ± 0.6	5 ± 0.25		Ac-RTTKS-NH2 [Peptide 30, Ac-Arg-Thr-Thr-Lys-Ser- NH2]	95	105	101
3.12 ± 0.16	3.24 ± 0.16	8.81 ± 0.44	8.91	Ac-RTTRS-OH [Peptide 18, Ac-Arg-Thr-Thr-Arg-Ser-OH]	88	103	107
7.04 ± 0.35	9.15 ± 0.46	0.53 ± 0.026		H-KTTKS-NH2 [Peptide 5, H-Lys-Thr-Thr-Lys-Ser-NH2]	91	91	100
2.51 ± 0.13	< 0.2	0.54 ± 0.027		H-RTTKS-OH [Peptide 25, H-Arg-Thr-Thr-Lys-Ser-OH]	97	87	109
